Assay results from US7527967B2, “Recombinant baculovirus and virus-like particle” (priority 2003, dated 2009).

These compounds were tested on vAtEGp64S966 baculovirus (spike protein) entry into Vero E6 cells.
Assay type: cell-based

Structure (SMILES)	blocking the entry of baculovirus into Vero E6 cells
CN1CCN(CCCN2c3ccccc3Sc3ccc(Cl)cc32)CC1 [compound 0643, Prochlorperazine]	very effective in blocking the entry
CCC(=O)c1ccc2c(c1)N(CC(C)N(C)C)c1ccccc1S2 (stereo not drawn) [compound 0649, Propiomazine]	very effective in blocking the entry
CSc1ccc2c(c1)N(CCC1CCCCN1C)c1ccccc1S2 (stereo not drawn) [compound 2025, Thioridazine]	very effective in blocking the entry
